24 molecules from ChEMBL document CHEMBL4190291, “Imidazo[1,2-a]pyrazine, Imidazo[1,5-a]quinoxaline and Pyrazolo[1,5-a]quinoxaline derivatives as IKK1 and IKK2 inhibitors” (2017) can be followed below.

Each structure is given as a SMILES string.

Test [1] has as its target T1, Inhibitor of nuclear factor kappa-B kinase subunit alpha (Homo sapiens) (UniProt O15111).
T1 sequence (whole entry): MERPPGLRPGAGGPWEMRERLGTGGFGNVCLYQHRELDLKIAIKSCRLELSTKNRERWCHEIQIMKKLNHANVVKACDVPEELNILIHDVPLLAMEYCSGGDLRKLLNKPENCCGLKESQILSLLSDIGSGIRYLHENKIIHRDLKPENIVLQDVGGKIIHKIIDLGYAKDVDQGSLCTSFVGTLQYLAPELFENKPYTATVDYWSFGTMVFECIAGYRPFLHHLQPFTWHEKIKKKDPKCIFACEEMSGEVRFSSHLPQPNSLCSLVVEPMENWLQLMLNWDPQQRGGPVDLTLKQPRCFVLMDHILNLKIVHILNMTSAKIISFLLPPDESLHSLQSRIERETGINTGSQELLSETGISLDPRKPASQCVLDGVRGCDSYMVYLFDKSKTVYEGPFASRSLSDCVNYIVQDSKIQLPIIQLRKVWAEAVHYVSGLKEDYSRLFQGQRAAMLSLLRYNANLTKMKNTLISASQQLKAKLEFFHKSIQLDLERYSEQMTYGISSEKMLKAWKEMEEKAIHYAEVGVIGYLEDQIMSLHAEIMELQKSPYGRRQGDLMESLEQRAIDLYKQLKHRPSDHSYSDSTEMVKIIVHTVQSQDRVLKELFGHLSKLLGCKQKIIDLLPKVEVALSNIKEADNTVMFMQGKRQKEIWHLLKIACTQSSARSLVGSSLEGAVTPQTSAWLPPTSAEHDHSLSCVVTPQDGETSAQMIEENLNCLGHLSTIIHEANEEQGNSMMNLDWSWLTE
As to the kind of experiment: Inhibition of full length human His-tagged IKK1 expressed in baculovirus expression system at 10 uM by Z'-LYTE assay.

In test [2] the target is T2, Inhibitor of nuclear factor kappa-B kinase subunit beta (Homo sapiens) (UniProt O14920).
T2 sequence (whole entry): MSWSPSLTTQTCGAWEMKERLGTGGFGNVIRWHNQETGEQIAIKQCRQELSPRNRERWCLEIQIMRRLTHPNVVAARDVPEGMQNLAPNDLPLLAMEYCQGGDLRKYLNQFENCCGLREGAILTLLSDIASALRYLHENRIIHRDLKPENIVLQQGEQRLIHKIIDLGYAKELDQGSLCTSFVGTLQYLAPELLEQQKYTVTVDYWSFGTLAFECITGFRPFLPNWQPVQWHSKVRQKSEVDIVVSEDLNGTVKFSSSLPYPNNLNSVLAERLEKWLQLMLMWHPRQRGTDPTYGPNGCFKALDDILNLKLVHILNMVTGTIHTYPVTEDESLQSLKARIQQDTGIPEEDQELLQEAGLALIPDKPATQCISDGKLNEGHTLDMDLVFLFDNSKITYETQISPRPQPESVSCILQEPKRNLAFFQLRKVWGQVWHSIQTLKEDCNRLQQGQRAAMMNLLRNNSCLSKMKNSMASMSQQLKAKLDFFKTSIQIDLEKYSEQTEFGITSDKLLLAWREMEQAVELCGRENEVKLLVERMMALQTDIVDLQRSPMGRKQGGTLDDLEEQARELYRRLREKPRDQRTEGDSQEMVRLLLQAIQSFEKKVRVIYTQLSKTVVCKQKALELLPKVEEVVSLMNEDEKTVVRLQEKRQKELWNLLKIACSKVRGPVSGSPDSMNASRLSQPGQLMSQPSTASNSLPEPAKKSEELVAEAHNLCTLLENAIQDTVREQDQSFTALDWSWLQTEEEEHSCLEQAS
As to the kind of experiment: Inhibition of full length human GST-tagged IKK2 expressed in baculovirus expression system at 10 uM by Z'-LYTE assay.

The test system of a further test is THP-1. Briefly: Anti-inflammatory activity in human THP1 cells assessed as inhibition of LPS/INFgamma-induced TNFalpha production at 10 uM relative to control. The test is classed as functional.

`Nc1nccn2c(-c3ccc(O)c(O)c3)cnc12`: the inhibition was 20% in test [1] and -8% in test [2].

With `CNc1nc2cc(C)ccc2n2nccc12`, the inhibition in test [1] is -4%; in test [2], 4%.

`CN(C)c1nc2ccccc2n2nccc12`: the inhibition in test [1] was -10%; in test [2] it was 17%.

Consider `CNc1nc2ccccc2n2c(Br)nc(Br)c12`, for which the inhibition in test [1] was -1%.

As for `CNc1nc2ccc(C)cc2n2ncc(Br)c12`, the inhibition in test [1] is -10%; in test [2], -3%.

Take `CNc1nc2ccc(C)cc2n2c(Br)cnc12`: the inhibition at 10 µM in the test with THP-1 was 40%.

For `CNc1nc2ccccc2n2c(Br)ncc12`, the inhibition stood at 0% in test [1] and 16% in test [2].

For the molecule `Nc1nccn2c(Br)cnc12`, the inhibition in test [1] is 7%; in test [2] it was 10%.

Take `CNc1nc2ccccc2n2ncc(Br)c12`: the results for the inhibition in test [1] and in test [2] were 0% and 1%, respectively.

Take `CNc1nc2ccccc2n2cnc(Br)c12`: the inhibition was -5% in test [1] and 10% in test [2].

With `Cc1ccc2c(c1)nc(N(C)C)c1ccnn12`, the inhibition in test [1] is -7%; in test [2], 4%.

As to `CNc1nc2ccccc2n2cncc12`, the inhibition in test [1] amounted to 3%; in test [2] it was 1%.

Turning to `COc1ccc(-c2cnc3c(N)nccn23)cc1OC`, the inhibition in test [1] is -2%; in test [2], -4%.

As for `CNc1nccn2c(-c3ccc(OC)c(OC)c3)cnc12`, the inhibition is -9% in test [1] and -1% in test [2].

Consider `Cc1ccc2nc(N(C)C)c3ccnn3c2c1`, for which, in test [2], the inhibition amounted to 1%.

As to `CNc1nccn2c(-c3ccc(O)c(O)c3)cnc12`, the inhibition in test [1] turned out to be 5%; in test [2], 18%.

Turning to `CNc1nccn2c(Br)cnc12`, the inhibition is 5% in test [1] and 6% in test [2].

In the case of `CNc1nc2ccccc2n2nccc12`, the inhibition is 5% in test [1] and -2% in test [2].

In the case of `CNc1nc2ccc(C)cc2n2nccc12`, the values for the inhibition in test [1] and in test [2] were -9% and 19%, respectively.

Regarding `CNc1nccn2c(C)cnc12`, the inhibition in test [1] was -1%; in test [2], -4%.

Consider `CNc1nc2ccc(C)cc2n2c(C)cnc12`, for which, in the test on THP-1, the inhibition at 10 µM amounted to 45%.

For the molecule `Cc1ccc2nc(NCCN)c3ncc(C)n3c2c1`, the inhibition in test [1] is 8%; in test [2] it was 64%.

As to `CNc1nc2ccccc2n2c(C)cnc12`, the inhibition in test [1] is -3%; in test [2], 5%.

Consider `CNc1nc2cc(C)ccc2n2ncc(Br)c12`, for which the inhibition in test [1] was -6%; in test [2] it was 7%.
